Test results as given in ChEMBL document CHEMBL1131741, “Design of scytalone dehydratase inhibitors as rice blast fungicides: (N-phenoxypropyl)-carboxamides” (Bioorg Med Chem Lett, 1999).
Converted amounts (≈) assume the structure as drawn.

What was measured:
rice = experiment: Concentration that affords 90% control of blast disease on rice plants by multiple rate foliar rice blast assay; assay type: functional
Scytalone dehydratase [1] = target: T1, Scytalone dehydratase (Magnaporthe oryzae (strain 70-15 / FGSC 8958) (Rice blast fungus)(Pyricularia oryzae), UniProt P56221)
T1 sequence (P56221 whole entry): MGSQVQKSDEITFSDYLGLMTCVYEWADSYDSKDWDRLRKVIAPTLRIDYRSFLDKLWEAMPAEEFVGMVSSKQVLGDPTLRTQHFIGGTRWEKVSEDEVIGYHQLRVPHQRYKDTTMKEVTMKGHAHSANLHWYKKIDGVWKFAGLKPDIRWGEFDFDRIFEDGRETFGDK

Scytalone dehydratase [2] = target: T1, Scytalone dehydratase; remark: listed apart in the source

Q: C[C@H](COc1cc(F)ccc1F)NC(=O)[C@H](C#N)C(C)(C)C was tested. Which ED90 (rice) did it give?
A: Its ED90 is 6.2 µg/mL (≈ 20 µM).

Q: And the Ki (Scytalone dehydratase [1])?
A: The Ki was 0.73 nM.

Q: And the “Adjusted Ki” value (Scytalone dehydratase [2])?
A: The value was 0.73 nM.

Q: With C[C@H](COc1cc(F)ccc1F)NC(=O)[C@@H](C#N)C(C)(C)C as the compound, how does the ED90 (rice) read?
A: Its ED90 is 0.8 µg/mL (≈ 2.58 µM).

Q: And the Ki (Scytalone dehydratase [1])?
A: The Ki was 0.02 nM.

Q: What about the “Adjusted Ki” value (Scytalone dehydratase [2]) of the same compound?
A: The value was 0.02 nM.

Q: Which ED90 (rice) does the source give for C[C@H](COc1ccc(F)cc1)NC(=O)C(C#N)C(C)(C)C (stereo not given in full) here?
A: The ED90 was 100 µg/mL (≈ 342 µM).

Q: What about the Ki (Scytalone dehydratase [1]) of the same compound?
A: Its Ki is 1.7 nM.

Q: What about the “Adjusted Ki” value (Scytalone dehydratase [2]) of the same compound?
A: The value was 0.83 nM.

Q: What does the source list for C[C@H](COc1cccc(F)c1F)NC(=O)[C@@H](C#N)C(C)(C)C?
A: ED90 (rice): 25 µg/mL (≈ 80.6 µM); Ki (Scytalone dehydratase [1]): 0.95 nM; Adjusted Ki (Scytalone dehydratase [2]): 0.95 nM

Q: How did the ED90 (rice) turn out when CC[C@]1(C(=O)N[C@H](C)COc2ccccc2)C(C)C1(Cl)Cl (stereo not given in full) was run?
A: Its ED90 is 30 µg/mL (≈ 90.8 µM).

Q: And the Ki (Scytalone dehydratase [1])?
A: The Ki was 0.17 nM.

Q: And the “Adjusted Ki” value (Scytalone dehydratase [2])?
A: The value was 0.0835 nM.

Q: What does the source list for CC[C@]1(C(=O)NC(C)CCc2ccccc2)C(C)C1(Cl)Cl (stereo not given in full)?
A: ED90 (rice): 30 µg/mL (≈ 91.4 µM); Ki (Scytalone dehydratase [1]): 0.83 nM; Adjusted Ki (Scytalone dehydratase [2]): 0.21 nM

Q: CC(COc1ccccc1)NC(=O)C(C#N)C(C)(C)C (stereo not given) was tested. Which ED90 (rice) did it give?
A: The ED90 was 200 µg/mL (≈ 729 µM).

Q: And the Ki (Scytalone dehydratase [1])?
A: The Ki was 2.8 nM.

Q: And the “Adjusted Ki” value (Scytalone dehydratase [2])?
A: Its value is 0.7 nM.

Q: For C[C@@H](COc1cc(F)ccc1F)NC(=O)[C@H](C#N)C(C)(C)C, which ED90 (rice) is on record?
A: Its ED90 is over 200 µg/mL.

Q: What about the Ki (Scytalone dehydratase [1]) of the same compound?
A: The Ki was 97 nM.

Q: What about the “Adjusted Ki” value (Scytalone dehydratase [2]) of the same compound?
A: Its value is 97 nM.

Q: What does the source list for CC[C@]1(C(=O)NCCCc2ccccc2)C(C)C1(Cl)Cl (stereo not given in full)?
A: ED90 (rice): 30 µg/mL (≈ 95.5 µM); Ki (Scytalone dehydratase [1]): 1.9 nM; Adjusted Ki (Scytalone dehydratase [2]): 0.96 nM

Q: What does the source list for CC[C@]1(C(=O)NCCOc2ccccc2)C(C)C1(Cl)Cl (stereo not given in full)?
A: ED90 (rice): 200 µg/mL (≈ 632 µM); Ki (Scytalone dehydratase [1]): 7.5 nM; Adjusted Ki (Scytalone dehydratase [2]): 3.7 nM

Q: With C[C@H](COc1ccccc1)NC(=O)[C@@H](C#N)C(C)(C)C (stereo in doubt; 6e) [listing 1 of 2 here] as the compound, how does the Ki (Scytalone dehydratase [1]) read?
A: The Ki was 1.3 nM.

Q: And the “Adjusted Ki” value (Scytalone dehydratase [2])?
A: The value was 0.66 nM.

Q: Which results are given for CC[C@]1(C(=O)N[C@H](C)COc2ccccc2F)C(C)C1(Cl)Cl (stereo not given in full)?
A: ED90 (rice): 50 µg/mL (≈ 144 µM); Ki (Scytalone dehydratase [1]): 0.37 nM; Adjusted Ki (Scytalone dehydratase [2]): 0.19 nM

Q: What does the source list for C[C@H](COc1ccccc1)NC(=O)[C@@H](C#N)C(C)(C)C (stereo in doubt; 6f) [listing 1 of 2 here]?
A: Ki (Scytalone dehydratase [1]): 0.58 nM; Adjusted Ki (Scytalone dehydratase [2]): 0.58 nM

Q: For CC[C@]1(C(=O)NC(C)COc2ccccc2)C(C)C1(Cl)Cl (stereo not given in full), which ED90 (rice) is on record?
A: The ED90 was 50 µg/mL (≈ 151 µM).

Q: What about the Ki (Scytalone dehydratase [1]) of the same compound?
A: The Ki was 0.38 nM.

Q: What about the “Adjusted Ki” value (Scytalone dehydratase [2]) of the same compound?
A: The value was 0.094 nM.

Q: C[C@H](COc1ccccc1)NC(=O)[C@H](C#N)C(C)(C)C was tested. Which ED90 (rice) did it give?
A: Its ED90 is over 200 µg/mL.

Q: And the Ki (Scytalone dehydratase [1])?
A: The Ki was 66 nM.

Q: What about the “Adjusted Ki” value (Scytalone dehydratase [2]) of the same compound?
A: The value was 33 nM.

Q: Which results are given for CC[C@]1(C(=O)N[C@H](C)COc2ccc(F)cc2)C(C)C1(Cl)Cl (stereo not given in full)?
A: ED90 (rice): 30 µg/mL (≈ 86.1 µM); Ki (Scytalone dehydratase [1]): 0.22 nM; Adjusted Ki (Scytalone dehydratase [2]): 0.11 nM

Q: For C[C@H](COc1cccc(F)c1)NC(=O)[C@@H](C#N)C(C)(C)C, which ED90 (rice) is on record?
A: Its ED90 is 25 µg/mL (≈ 85.5 µM).

Q: And the Ki (Scytalone dehydratase [1])?
A: The Ki was 0.24 nM.

Q: And the “Adjusted Ki” value (Scytalone dehydratase [2])?
A: Its value is 0.24 nM.

Q: Which ED90 (rice) does the source give for CC[C@]1(C(=O)N[C@@H](C)COc2cc(F)ccc2F)C(C)C1(Cl)Cl (stereo not given in full) here?
A: Its ED90 is 100 µg/mL (≈ 273 µM).

Q: And the Ki (Scytalone dehydratase [1])?
A: The Ki was 33 nM.

Q: What about the “Adjusted Ki” value (Scytalone dehydratase [2]) of the same compound?
A: Its value is 16 nM.

Q: How did the Ki (Scytalone dehydratase [1]) turn out when C[C@H](COc1ccccc1)NC(=O)c1cc(F)ccc1O was run?
A: Its Ki is 0.44 nM.

Q: For CC[C@]1(C(=O)N[C@H](C)COc2cccc(F)c2F)C(C)C1(Cl)Cl (stereo not given in full), which ED90 (rice) is on record?
A: The ED90 was 100 µg/mL (≈ 273 µM).

Q: What about the Ki (Scytalone dehydratase [1]) of the same compound?
A: Its Ki is 2.2 nM.

Q: And the “Adjusted Ki” value (Scytalone dehydratase [2])?
A: Its value is 2.2 nM.

Q: With C[C@H](COc1cc(F)ccc1F)NC(=O)C(C#N)C(C)(C)C (stereo not given in full) as the compound, how does the ED90 (rice) read?
A: Its ED90 is 6.2 µg/mL (≈ 20 µM).

Q: And the Ki (Scytalone dehydratase [1])?
A: The Ki was 0.042 nM.

Q: And the “Adjusted Ki” value (Scytalone dehydratase [2])?
A: Its value is 0.021 nM.

Q: What does the source list for CC(COc1ccccc1F)NC(=O)C(C#N)C(C)(C)C (stereo not given)?
A: ED90 (rice): 50 µg/mL (≈ 171 µM); Ki (Scytalone dehydratase [1]): 0.24 nM; Adjusted Ki (Scytalone dehydratase [2]): 0.059 nM

Q: Which ED90 (rice) does the source give for CC(CCc1ccccc1)NC(=O)C(C#N)C(C)(C)C (stereo not given) here?
A: Its ED90 is over 200 µg/mL.

Q: And the Ki (Scytalone dehydratase [1])?
A: The Ki was 7.2 nM.

Q: And the “Adjusted Ki” value (Scytalone dehydratase [2])?
A: Its value is 1.8 nM.

Q: C[C@H](COc1ccccc1F)NC(=O)[C@@H](C#N)C(C)(C)C was tested. Which ED90 (rice) did it give?
A: The ED90 was 25 µg/mL (≈ 85.5 µM).

Q: What about the Ki (Scytalone dehydratase [1]) of the same compound?
A: Its Ki is 0.08 nM.

Q: And the “Adjusted Ki” value (Scytalone dehydratase [2])?
A: The value was 0.08 nM.

Q: C[C@H](COc1ccccc1)NC(=O)[C@@H](C#N)C(C)(C)C (stereo in doubt; 6e) [listing 2 of 2 here] was tested. Which ED90 (rice) did it give?
A: The ED90 was 100 µg/mL (≈ 364 µM).

Q: Which ED90 (rice) does the source give for CC[C@]1(C(=O)N[C@H](C)COc2cc(F)ccc2F)C(C)C1(Cl)Cl (stereo not given in full) here?
A: The ED90 was 6 µg/mL (≈ 16.4 µM).

Q: What about the Ki (Scytalone dehydratase [1]) of the same compound?
A: Its Ki is 0.085 nM.

Q: What about the “Adjusted Ki” value (Scytalone dehydratase [2]) of the same compound?
A: Its value is 0.042 nM.

Q: For C[C@@H](COc1cc(F)ccc1F)NC(=O)[C@@H](C#N)C(C)(C)C, which ED90 (rice) is on record?
A: Its ED90 is over 200 µg/mL.

Q: What about the Ki (Scytalone dehydratase [1]) of the same compound?
A: The Ki was 7.7 nM.

Q: And the “Adjusted Ki” value (Scytalone dehydratase [2])?
A: The value was 7.7 nM.

Q: For CC(C)(C)C(C#N)C(=O)NCCCc1ccccc1 (stereo not given), which ED90 (rice) is on record?
A: The ED90 was 200 µg/mL (≈ 774 µM).

Q: What about the Ki (Scytalone dehydratase [1]) of the same compound?
A: Its Ki is 13.6 nM.

Q: And the “Adjusted Ki” value (Scytalone dehydratase [2])?
A: Its value is 6.8 nM.

Q: For CC(COc1cccc(F)c1)NC(=O)[C@@H](C#N)C(C)(C)C (stereo not given in full), which ED90 (rice) is on record?
A: Its ED90 is 25 µg/mL (≈ 85.5 µM).

Q: And the Ki (Scytalone dehydratase [1])?
A: The Ki was 0.46 nM.

Q: And the “Adjusted Ki” value (Scytalone dehydratase [2])?
A: The value was 0.23 nM.

Q: For CC[C@]1(C(=O)N[C@H](C)COc2cccc(F)c2)C(C)C1(Cl)Cl (stereo not given in full), which ED90 (rice) is on record?
A: Its ED90 is 30 µg/mL (≈ 86.1 µM).

Q: And the Ki (Scytalone dehydratase [1])?
A: Its Ki is 0.11 nM.

Q: And the “Adjusted Ki” value (Scytalone dehydratase [2])?
A: The value was 0.057 nM.

Q: C[C@H](COc1ccccc1)NC(=O)[C@@H](C#N)C(C)(C)C (stereo in doubt; 6f) [listing 2 of 2 here] was tested. Which ED90 (rice) did it give?
A: Its ED90 is 25 µg/mL (≈ 91.1 µM).
